From patent publication US20260042764A1, “COMPOSITIONS AND METHODS FOR INHIBITION OF KRAS” (TheRas, Inc., priority 2022, published 2026)

Test system: HCT116 cells (KRAS G13D)
Test: Cell-based pERK HTRF assay in HCT116 cells (Biological Example 5)
Conditions: Homo sapiens, HCT-116
Experimental: Biological Example 5: Cell-based PERK HTRF assay in AsPC-1, SW1900, HPAC, Capan-2, RKN, H358, HCT116, KP-2, H1573, A549, MKN1, and HT1080 cells
The inhibition of ERK phosphorylation, as measured using the HTRF Advanced Phospho-ERK 1/2 (Thr202/Tyr204) Detection Assay kit (Perkin Elmer), was used to determine the effectiveness of test compounds in disrupting KRAS-driven protein/effector signaling in cells.
On day 1, cells were seeded into 96-well plates at 2.5×10^4 cells/well in 100 μL of complete growth media supplemented with 10% fetal bovine serum (FBS) and incubated at 37° C., in the presence of 5% CO2.
On day 2, cells were treated with compounds diluted in DMSO at 0.25% final DMSO concentration. Compounds were dosed in a 9-point concentration curve with three-fold dilution between concentrations. Cells were incubated in the presence of compound for two hours at 37° C. Following this treatment period, cells were harvested by aspirating the media, adding 40 μL of kit-supplied 1x lysis buffer per well, and shaking for 30 minutes at 250 rpm at room temperature.
Following cell lysis, samples were homogenized by pipetting up and down twenty times and 16 μL of cell lysate per well was transferred from the 96-well cell culture plate to two wells of a 384-well detection plate. A complete detection buffer was prepared by diluting D2 and Eu Cryptate antibodies 1:20 in kit-provided detection solution, 4 μL of complete detection buffer was then added to each well with lysate. Plates were incubated with gentle rocking for 24 hours at 4° C.
Following this incubation period, plates were centrifuged at 500×g for one minute and analyzed on a CLARIOstar plate reader. Data was imported into Microsoft Excel and the signal from the 665 nm channel was divided by the signal from the 620 nm channel. % pERK was calculated as: […]
Data was imported to the Prism software package (Graphpad) and EC50 values were calculated using the log (inhibitor) vs, response—variable slopc (Four parameters) model.

Row | SMILES | IC50
1 | CCN(c1nc(OC[C@@]23CCCN2C[C@H](F)C3)nc2c(F)c(-c3ccc(F)c4sc(N)c(C#N)c34)c(C(F)(F)F)cc12)[C@H]1CCN(C(=O)N(C)C)C1 (atropisomer, axis not shown) [Compound 540, (3S)-3-[[7-(2-amino-3-cyano-7-fluoro-benzothiophen-4-yl)-8-fluoro-2-[[(2R,8S)-2-fluoro-1,2,3,5,6,7-hexahydropyrrolizin-8-yl]methoxy]-6-(trifluoromethyl)quinazolin-4-yl]-ethyl-amino]-N,N-dimethyl-pyrrolidine-1-carboxamide] | ≤ 0.1 µM
2 | CCC(=O)N1CC[C@@H](N(CC)c2nc(OC[C@@]34CCCN3C[C@H](F)C4)nc3c(F)c(-c4ccc(F)c5sc(N)c(C#N)c45)c(C(F)(F)F)cc23)[C@H]1C (atropisomer, axis not shown) [Compound 523] | ≤ 0.1 µM
3 | CCN(c1nc(OC[C@@]23CCCN2C[C@H](F)C3)nc2c(F)c(-c3ccc(F)c4sc(N)c(C#N)c34)c(C(F)(F)F)cc12)[C@H]1CCN(C(=O)C(C)C)C1 (single isomer, unassigned) [Compound 469] | ≤ 0.1 µM
4 | CCN(c1nc(OC[C@@]23CCCN2C[C@H](F)C3)nc2c(F)c(-c3ccc(F)c4sc(N)c(C#N)c34)c(C(F)(F)F)cc12)[C@H]1CCN(C(=O)OC)C1 (atropisomer, axis not shown) [Compound 541, methyl(3S)-3-[[7-(2-amino-3-cyano-7-fluoro-benzothiophen-4-yl)-8-fluoro-2-[[(2R,8S)-2-fluoro-1,2,3,5,6,7-hexahydropyrrolizin-8-yl]methoxy]-6-(trifluoromethyl)quinazolin-4-yl]-ethyl-amino]pyrrolidine-1-carboxylate] | ≤ 0.1 µM
5 | Cc1c(C(=O)N(C)C)nn2c1CN(c1nc(OC[C@@]34CCCN3C[C@H](F)C4)nc3c(F)c(-c4ccc(F)c5sc(N)c(C#N)c45)c(C(F)(F)F)cc13)CC2 [Compound 501] | 0.1 to 1 µM
6 | CCN(c1nc(OC[C@@]23CCCN2C[C@H](F)C3)nc2c(F)c(-c3ccc(F)c4sc(N)c(C#N)c34)c(C(F)(F)F)cc12)[C@@H]1CCN(C(=O)C2CC2)[C@@H]1C (atropisomer, axis not shown) [Compound 524] | ≤ 0.1 µM

Test system: HCT116 cells (KRAS G13D)
Test: 3D Cell viability assay in HCT116 cells (Biological Example 6)
Assay type: cell-based
Conditions: Homo sapiens, HCT-116; HCT116 (KRAS G13D) spheroids, 72 hours
Method in brief: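 Tumour spheroids, grown 48 h from 1000 seeded cells in ultra-low attachment wells, receive compound at nine three-fold-spaced concentrations (final DMSO 0.25%) for 72 h at 37 °C, 5% CO2. Viability is measured by luminescence after CTG 3D lysis.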

Row | SMILES | IC50
7 | CCN(c1nc(OC[C@@]23CCCN2C[C@H](F)C3)nc2c(F)c(-c3ccc(F)c4sc(N)c(C#N)c34)c(C(F)(F)F)cc12)[C@H]1CCN(C(=O)OC)C1 (atropisomer, axis not shown) [Compound 541, methyl(3S)-3-[[7-(2-amino-3-cyano-7-fluoro-benzothiophen-4-yl)-8-fluoro-2-[[(2R,8S)-2-fluoro-1,2,3,5,6,7-hexahydropyrrolizin-8-yl]methoxy]-6-(trifluoromethyl)quinazolin-4-yl]-ethyl-amino]pyrrolidine-1-carboxylate] | 0.1 to 1 µM
8 | CCN(c1nc(OC[C@@]23CCCN2C[C@H](F)C3)nc2c(F)c(-c3ccc(F)c4sc(N)c(C#N)c34)c(C(F)(F)F)cc12)[C@H]1CCS(=O)(=O)C1 (atropisomer, axis not shown) [Compound 492] | 0.1 to 1 µM
